Patent publication US12708671B2, “Nanometric pharmaceutical composition in the form of liposomes or nanoemulsion containing specific sequences of interference RNA” (UNIVERSIDADE FEDERAL DO RIO GRANDE DO SUL, priority 2019, dated 2026)

What was measured:
[1] = target: T1, ecto-5′-nucleotidase/CD73 (Rattus norvegicus, UniProt P21588); assay: ecto-5′-nucleotidase/CD73 enzymatic activity (AMP hydrolysis, malachite green) in C6 glioma; format: cell-based, Rattus norvergicus; conditions: for reduction of AMPase activity: C6 glioma cells silenced with NE/siRNA-CD73 complexes; for reduction of AMP hydrolysis: C6 glioma
T1 construct: endogenous in cells; host or cells: C6 glioma cells (rat)
T1 sequence (P21588 29-551): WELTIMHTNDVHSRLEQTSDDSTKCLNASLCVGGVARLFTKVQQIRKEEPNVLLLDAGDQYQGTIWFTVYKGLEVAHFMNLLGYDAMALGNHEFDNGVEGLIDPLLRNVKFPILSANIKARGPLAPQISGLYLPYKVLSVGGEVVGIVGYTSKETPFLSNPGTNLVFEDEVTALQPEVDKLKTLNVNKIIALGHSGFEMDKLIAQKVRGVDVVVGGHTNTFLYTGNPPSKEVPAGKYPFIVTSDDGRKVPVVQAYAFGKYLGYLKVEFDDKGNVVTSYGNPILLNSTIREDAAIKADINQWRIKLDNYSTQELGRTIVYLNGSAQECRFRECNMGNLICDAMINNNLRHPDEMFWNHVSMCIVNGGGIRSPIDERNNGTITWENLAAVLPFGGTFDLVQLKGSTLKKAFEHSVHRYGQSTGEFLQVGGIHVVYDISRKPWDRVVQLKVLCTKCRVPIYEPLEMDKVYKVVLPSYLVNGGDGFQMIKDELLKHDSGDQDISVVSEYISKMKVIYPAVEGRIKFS
Method: (§1) After treatment with AMPCP, the medium was removed, the cells were washed with PBS buffer solution (phosphate buffered saline, solution containing NaCl and NaHPO4), trypsinized with 200 μL of 0.25% trypsin solution and counted in a newbauer chamber. Once the cells were treated, enzyme activity, cell viability and immunocytochemistry assays were performed for CD73, in order to determine the reliability of the tests with the NE/siRNA or Lipofectamine®/siRNA complexes. The enzymatic activity of C6 cells was determined in an incubation medium (2 mM MgCl2, 120 mM NaCl, 5 mM KCl, 10 mM glucose, 20 mM HEPES [pH 7.4], and 2 mM AMP [adenosine monophosphate]) at 37° C. for 10 min, where the inorganic phosphate released by the action of CD73 was measured and the protein concentration was evaluated by the methods of malachite green and Coomassie Blue, respectively. Specific activity was expressed as μmol Pi released/min/mg protein.
Thus, it was evaluated how much the selective ecto-5′nucleotidase/CD73 inhibitor, AMPCP, could affect the proliferation of C6 glioma cells. The cells were exposed to increasing concentrations of AMPCP (1, 10 and 100 μM) and after 48 h cell proliferation was determined by counting in a newbauer chamber. In parallel, the activity of the enzyme ecto-5′nucleotidase/CD73 was analyzed by measuring the hydrolysis of AMP to adenosine (ADO) using the malachite green method.
For this purpose, specific siRNA-CD73 sequences were developed (siRNA-CD73-961 and siRNA-CD73-980; Table 1) and their functionality/specificity was assessed by transfecting C6 cells using Lipofectamine® according to the manufacturer's instructions. After 48 h of transfection, CD73 expression and enzymatic activity were evaluated by immunocytochemistry and AMP hydrolysis, respectively.
After the physical-chemical characterization and the optimization of the transfection, the effectiveness of the NE/siRNA-CD73-961 and NE/siRNA-CD73-980 complexes in silencing CD73 in C6 glioma was analyzed through immunocytochemical and AMP hydrolysis experiments.

C6 glioma cells = assay: C6 glioma cell proliferation by counting in newbauer chamber; format: cell-based, rat; conditions: 100 μM, 48 h, compared to the control
Method: Primary astrocyte cultures were prepared from scratch. The cortex of newborn Wistar rats (1-2 days old) were removed and mechanically dissociated in a balanced saline solution free of Ca^+2 and Mg^+2 (pH 7.4), containing 137 mM NaCl, 5, 36 mM KCl, 0.27 mM Na2HPO4, 1.1 mM KH2PO4, and 6.1 mM glucose. After centrifugation at 1000 g for 5 min, the pellet was resuspended in culture medium (pH 7.6) containing […], 8.39 mM of HEPES buffer (4-(2-hydroxyethyl)-1-acid piperazine ethanesulfonic) (pH 7.6), 23.8 mM NaHCO3, 0.1% fungizone® (Amphotericin B, antifungal), 0.032% antibiotic garamycin and 10% FBS. […]
as §1, with “Once the cells were treated, enzyme activity, cell viability and immunocytochemistry assays were performed for CD73, in order to determine the reliability of the tests with the NE/siRNA or Lipofectamine®/siRNA complexes.” left out, “protein. […]” for “protein.”

U87MG glioma cells [2] = assay: U87MG cell proliferation by counting in Neubauer chamber; format: cell-based, human
Method: To assess the impact of CD73 silencing on U87MG glioma cell proliferation in culture, cells were silenced using the siRNA-CD73-441 sequence and counted using a Neubauer chamber.

U87MG glioma cells [3] = assay: U87MG migration assay; format: cell-based, human
CD73 [4] = assay: CD73 enzymatic activity in U87MG after silencing; format: cell-based, human
Method: (§2) The siRNA-CD73-441 sequence to silence human CD73 was evaluated for its efficiency.

CD73 [5] = assay: CD73 protein expression in U87MG after silencing; format: cell-based, human
Method: as §2

U87MG glioma cells [6] = assay: U87MG cell viability with temozolomide after CD73 silencing; format: cell-based; conditions: Homo sapiens, U-87 MG, U87MG previously silenced for CD73 with siRNA-CD73-441, read-out: reduction of cell viability
Method: The participation of CD73 in chemoresistance was also investigated (FIG. 13). U87MG glioma cells were treated with temozolomide (100 μM) alone or in combination with siRNA-CD73-441. Temozolomide reduced cell viability by an average of 20% in glioma previously silenced for CD73.

For “siRNA-CD73-980: interference RNA sequence for CD73 (gene ID: 58813, Rattus norvergicus), SEQ ID No: 2, Table 1 (ACCAGUGGAGGAUAAAAUUAGAAUUUUAUCCUCCACUGGUUA; listed as RNA, chemistry not given here)”, the “reduction of AMPase activity” value [1] was 63%.
In the case of `Nc1ncnc2c1ncn2[C@@H]1O[C@H](COP(=O)(O)CP(=O)(O)O)[C@@H](O)[C@H]1O` [AMPCP, adenosine 5′-(α, βmethylene) -diphosphate], the “decrease in cell proliferation” value (C6 glioma cells) is reported as 30%, the “reduction of AMP hydrolysis” value ([1]; 10 μM) is reported as 40% and the “reduction of AMP hydrolysis” value ([1]; 100 μM) is reported as 50%.
`Nc1ncnc2c1ncn2[C@@H]1O[C@H](CO)[C@@H](O)[C@H]1O` [adenosine] was tested, and the “proliferation of CD73-silenced U87MG cells” value (U87MG glioma cells [2]; ADO treatment of cells silenced with siRNA-CD73-441) was “restored proliferation”, the “migration of U87MG glioma cells” value (U87MG glioma cells [3]; 24 hours of analysis) was “induced a sustained migration” and the “migratory potential of CD73-silenced glioblastoma cells” value (U87MG glioma cells [3]; adenosine treatment of cells silenced with siRNA-CD73-441) was “promoted recovery of the migratory potential”.
In the case of “siRNA-CD73-441: siRNA sequence to silence human CD73, SEQ ID No: 3, Table 1 (GGGGCCACUAGCAUCUCAAAUUUGAGAUGCUAGUGGCCCCUU; listed as RNA, chemistry not given here)”, the “decrease of CD73 enzymatic activity” value (CD73 [4]) is reported as ~ 90%, the CD73 protein expression (CD73 [5]) is reported as “efficient in decreasing” and the “inhibition of U87MG cell proliferation” value (U87MG glioma cells [2]; CD73 silencing) is reported as ~ 40%. For the same molecule, the glioma cell migration (U87MG glioma cells [3]; U87MG, CD73 silencing) was “impaired glioma cell migration”.
`Cn1nnc2c(C(N)=O)ncn2c1=O` [Temozolomide, temozolomide] gave a cytotoxicity at 100 µM (U87MG glioma cells [6]) of 20%.
For “siRNA-CD73-961: interference RNA sequence for CD73 (gene ID: 58813, Rattus norvergicus), SEQ ID No: 1, Table 1 (GCCAUCAAAGCAGACAUUAACUAAUGUCUGCUUUGAUGGCUG; listed as RNA, chemistry not given here)”, the “reduction of AMPase activity” value [1] was 70%.
